Structures are written as SMILES.

Data set [1] can be described thus: Instantaneous solubility in deionized water at room temperature. The class given is physicochemical. The settings on record: for instantaneous solubility: vigorously mixed with deionized water for 10 minutes at room temperature, clear solution without precipitates. The source says:
(§1) The composition can optionally be expressed in terms of the concentration of one or more steviol glycoside(s). Beneficially, it has been founds that compound(s) 1, 2, 3, and/or 4, can improve solubility of steviol glycosides in an aqueous solution, and therefore compositions can be prepared having a greater concentration of steviol glycosides in solution. As used herein “instantaneous solubility” refers to the solubility of a steviol glycoside, or mixture of steviol glycosides, that are vigorously mixed with deionized water at room temperature (25° C.). As used herein “equilibrium solubility” refers to the solubility of a steviol glycoside, or mixture of steviol glycosides, that are vigorously mixed with deionized water at 80° C. for 15 minutes, cooled to room temperature (25° C.), and then observed up to 4 days. Clear solutions without precipitates are considered soluble. Unless indicated otherwise herein, the term “solubility” refers to “equilibrium solubility.”
(§2) Instantaneous solubility is determined by mixing steviol glycoisde with deionized water vigorously for 10 minutes at room temperature. Equilibrium solubility is determined by heating deionized water with steviol glycoside at 80° C. for 15 minutes and cooling down to room temperature for observation up to 4 days. Clear solutions without precipitates are considered soluble.

A short description of data set [2]: Equilibrium solubility (heated at 80° C. for 15 minutes, cooled to room temperature, observed up to 4 days). Format: physicochemical. The settings on record: for equilibrium solubility: deionized water, 80° C. for 15 minutes, cooled to room temperature, observed up to 4 days.
Text: as §1, §2

The conditions of data set [3]: taste, versus sucrose/sugar; cited from earlier work.

For `C=C1C[C@@]23CC[C@H]4[C@@](C)(CCC[C@@]4(C)C(=O)O[C@@H]4O[C@H](CO)[C@@H](O)[C@H](O)[C@H]4O[C@@H]4O[C@H](CO)[C@@H](O)[C@H](O)[C@H]4O)[C@@H]2CC[C@]1(O[C@@H]1O[C@H](CO)[C@@H](O)[C@H](O[C@@H]2O[C@H](CO)[C@@H](O)[C@H](O)[C@H]2O)[C@H]1O[C@@H]1O[C@H](CO)[C@@H](O)[C@H](O)[C@H]1O)C3` [RebD, rebaudioside D], the results for the instantaneous solubility in data set [1] and in data set [1] (listed as rebaudioside D) were < 0.08% and “less than 0.08%”, respectively. Moreover, the “equilibrium solubility at 0.08%” value in data set [2] (RebD 0.08% in deionized water) is “soluble”. In data set [2], the equilibrium solubility stood at 0.08%. The “times sweeter than sucrose” value in data set [3] is given as 200-220 times.

As for `C=C1C[C@@]23CC[C@H]4[C@@](C)(CCC[C@@]4(C)C(=O)O[C@@H]4O[C@H](CO)[C@@H](O)[C@H](O[C@@H]5O[C@H](CO)[C@@H](O)[C@H](O)[C@H]5O)[C@H]4O[C@@H]4O[C@H](CO)[C@@H](O)[C@H](O)[C@H]4O)[C@@H]2CC[C@]1(O[C@@H]1O[C@H](CO)[C@@H](O)[C@H](O[C@@H]2O[C@H](CO)[C@@H](O)[C@H](O)[C@H]2O)[C@H]1O[C@@H]1O[C@H](CO)[C@@H](O)[C@H](O)[C@H]1O)C3` [RebM, rebaudioside M], in data set [1] (RebM 0.10% in deionized water), the “instantaneous solubility at 0.10%” value is “soluble”. The “instantaneous solubility at 0.13%” value in data set [1] (RebM 0.13% in deionized water) is given as “soluble”. The instantaneous solubility entry was “at least 0.13%” in data set [1] and “about 0.13%” in data set [1] (listed as rebaudioside M). Besides, the “equilibrium solubility at 0.10%” value in data set [2] (RebM 0.10% in deionized water) is given as “soluble”. In addition, the “equilibrium solubility at 0.13%” value in data set [2] (RebM 0.13% in deionized water) is on record as “soluble”. In addition, in data set [2] (RebM 0.20% in deionized water), the “equilibrium solubility at 0.20%” value is “soluble”. Further, the equilibrium solubility entry in data set [2] (listed as rebM) is “at least 0.2%”; in data set [2] (listed as rebaudioside M), “about 0.2%”.

These data come from patent US12030905B2, “Steviol glycoside compounds, compositions for oral ingestion or use, and method for enhancing steviol glycoside solubility” (Cargill, Incorporated, priority 2014, dated 2024).
